Assay results: US8143288B2, “Inhibitors of HCV replication” (priority 2005, dated 2012)

System: HCV 1b-377-neo replicon cells
Assay: HCV replicon FRET assay
Format: cell-based
Details: Hepatitis C virus; HCV replicon; read-out: Activity (EC50)

SMILES	EC50
CCc1ccccc1C(=O)N1C[C@@H](N(C)C)C[C@H]1C(=O)Nc1ccc(/C=C/c2ccc(NC(=O)[C@@H]3C[C@H](N(C)C)CN3C(=O)c3ccccc3CC)cc2)cc1 [Example 228]	1000 to 10000 nM
CN(C)[C@H]1C[C@@H](C(=O)Nc2ccc(/C=C/c3ccc(NC(=O)[C@@H]4C[C@H](N(C)C)CN4C(=O)c4ccccc4NCc4ccccc4)cc3)cc2)N(C(=O)c2ccccc2NCc2ccccc2)C1 [Example 229]	1000 to 10000 nM
O=C(Nc1ccc(/C=C/c2ccc(NC(=O)[C@@H]3CCCN3C(=O)c3ncccc3-c3ccc(Cl)cc3)cc2)cc1)[C@@H]1CCCN1C(=O)c1ncccc1-c1ccc(Cl)cc1 [Example 230]	100 to 1000 nM
CCOc1cccc(-c2cccnc2C(=O)N2CCC[C@H]2C(=O)Nc2ccc(/C=C/c3ccc(NC(=O)[C@@H]4CCCN4C(=O)c4ncccc4-c4cccc(OCC)c4)cc3)cc2)c1 [Example 231]	1000 to 10000 nM
O=C(Nc1ccc(/C=C/c2ccc(NC(=O)[C@@H]3CCCN3C(=O)c3ncccc3-c3cccc(Cl)c3)cc2)cc1)[C@@H]1CCCN1C(=O)c1ncccc1-c1cccc(Cl)c1 [Example 232]	1000 to 10000 nM
Cc1cccc(-c2cccnc2C(=O)N2CCC[C@H]2C(=O)Nc2ccc(/C=C/c3ccc(NC(=O)[C@@H]4CCCN4C(=O)c4ncccc4-c4cccc(C)c4)cc3)cc2)c1 [Example 233]	1000 to 10000 nM
CCC/C=C/c1cccnc1C(=O)N1CCC[C@H]1C(=O)Nc1ccc(/C=C/c2ccc(NC(=O)[C@@H]3CCCN3C(=O)c3ncccc3/C=C/CCC)cc2)cc1 [Example 235]	1000 to 10000 nM
O=C(Nc1ccc(/C=C/c2ccc(NC(=O)[C@@H]3CCCN3C(=O)c3ccccc3C3=CCCC3)cc2)cc1)[C@@H]1CCCN1C(=O)c1ccccc1C1=CCCC1 [Example 237]	1000 to 10000 nM
C=Cc1ccccc1C(=O)N1CCC[C@H]1C(=O)Nc1ccc(/C=C/c2ccc(NC(=O)[C@@H]3CCCN3C(=O)c3ccccc3C=C)cc2)cc1 [Example 238]	1000 to 10000 nM
Cc1ccc(-c2ccccc2C(=O)N2CCC[C@H]2C(=O)Nc2ccc(/C=C/c3ccc(NC(=O)[C@@H]4CCCN4C(=O)c4ccccc4-c4ccc(C)s4)cc3)cc2)s1 [Example 239]	1000 to 10000 nM
CN(C(=O)[C@@H]1CCCN1C(=O)OCc1ccccc1)c1ccc(/C=C/c2ccc(N(C)C(=O)[C@@H]3CCCN3C(=O)OCc3ccccc3)cc2)cc1 [Example 244]	1000 to 10000 nM
CCC(C)NC(=O)O[C@@H]1C[C@@H](C(=O)Nc2ccc(/C=C/c3ccc(NC(=O)[C@@H]4C[C@@H](O)CN4C(=O)OCc4ccccc4)cc3)cc2)N(C(=O)OCc2ccccc2)C1 (some centres unmarked) [Example 245]	1000 to 10000 nM
CC(C)NC(=O)O[C@@H]1C[C@@H](C(=O)Nc2ccc(/C=C/c3ccc(NC(=O)[C@@H]4C[C@@H](O)CN4C(=O)OCc4ccccc4)cc3)cc2)N(C(=O)OCc2ccccc2)C1 [Example 246]	1000 to 10000 nM
CC(C)(C)NC(=O)O[C@@H]1C[C@@H](C(=O)Nc2ccc(/C=C/c3ccc(NC(=O)[C@@H]4C[C@@H](O)CN4C(=O)OCc4ccccc4)cc3)cc2)N(C(=O)OCc2ccccc2)C1 [Example 247]	1000 to 10000 nM
O=C(NC1CCCC1)O[C@@H]1C[C@@H](C(=O)Nc2ccc(/C=C/c3ccc(NC(=O)[C@@H]4C[C@@H](O)CN4C(=O)OCc4ccccc4)cc3)cc2)N(C(=O)OCc2ccccc2)C1 [Example 248]	1000 to 10000 nM
CCC(C)NC(=O)O[C@@H]1C[C@@H](C(=O)Nc2ccc(/C=C/c3ccc(NC(=O)[C@@H]4C[C@@H](OC(=O)NC(C)CC)CN4C(=O)OCc4ccccc4)cc3)cc2)N(C(=O)OCc2ccccc2)C1 (some centres unmarked) [Example 249]	1000 to 10000 nM
Nc1ccc(/C=C/c2ccc(NC(=O)[C@@H]3CCCN3C(=O)Cc3ccccc3)cc2)cc1 [Example 250A]	1000 to 10000 nM
O=C(Nc1ccc(/C=C/c2ccc(NS(=O)(=O)Cc3ccccc3)cc2)cc1)[C@@H]1CCCN1C(=O)Cc1ccccc1 [Example 250B]	100 to 1000 nM
O=C(NCc1ccccc1)Nc1ccc(/C=C/c2ccc(NC(=O)[C@@H]3CCCN3C(=O)Cc3ccccc3)cc2)cc1 [Example 250C]	1000 to 10000 nM
CC(=O)N1CCCC1C(=O)Nc1ccc(/C=C/c2ccc(NC(=O)[C@@H]3CCCN3C(=O)Cc3ccccc3)cc2)cc1 (some centres unmarked) [Example 251]	0.1 to 90 nM
